Several values for one entry are separate records, joined by “and”; a condition that tells them apart may be missing. Equal entries are not always repeated. Entries after “also recorded” stand apart in the source; their conditions may differ. Where two headings read alike, the source gives them in different places. Marks after values point to notes of the source that are not given here.
Assays:
RAR α = test: Western blot of rat lung, inhaled 13-cis RA (experiment A), RAR α; type: in vivo; conditions: for upregulation of lung tissue RAR (first named, α): daily deposited dose 6.4 mg/kg/day
Description: (§1) The experimental groups were as follows (Table 4):1. Vehicle (10/9 mix of PEG 300 and Ethanol with 0.5% of ascorbic acid and 0.5% phosphatidyl choline) control, day 1: rats (19) inhaled vehicle for 2 hr for one day; 2. […] Vehicle control, day 28: rats (16) inhaled vehicle as for group 1 for a period of 28 days; 5.
(§2) Tissues were collected, frozen in dry ice and kept at −70° C. until used. 500 mg aliquots were diced in small pieces and homogenized in 300 μl of cold PBS, using the hand held homogenizer for 2˜3 minutes. Sample and washes were centrifuged at 5000×g for 20 minutes. The pellet was suspended in 400 μl of ice-cold Buffer A [2 μl 0.5M EDTA, 10 μl 100 mM EGTA, 50 μl 100MM PMSF, 10 μl 1M DTT, 10 ml (10 mM HEPES pH 7.9+10 mM KCl)], and left at ice temperature for 15 minutes. 25 μl of 10% solution of NP-40 was added and samples were mixed in a vortex vigorously for 10 seconds. Samples were centrifuged at 14,000×g for 1 minute at 4° C. and the pellet treated once more in this fashion (resuspended etc.). The supernatant was removed and 100 μl of ice-cold Buffer C [4 μl 0.5M EDTA, 20 μl 100 mM EGTA, 20 μl 100 mM PMSF, 2 μl 1M DTT, 2 ml (20 mM HEPES pH 7.9+0.4M NaCl)] was added. Pellets were resuspended by tapping gently on the bottom of the Eppendorf tubes. Samples were rocked vigorously in a bucket of ice on an orbital shaker for 30 minutes. Samples were centrifuged at 14,000×g for 5 minutes at 4° C.
(§3) Samples were prepared by adding one part of the Sample Buffer to one part of the sample and mixing well. Samples were heated at 95° C. for 5 minutes to induce denaturation. 5 μl of Rainbow Standard and 5 μl of Biotinylated Molecular Marker were added to parallel wells. 20 μg protein per sample was loaded in each lane. Electrophoresis was performed with voltage set at 125V for about 1˜1.5 hours. Gel transfer was executed at 25V for 2 hours. The membrane was stained in Ponceau S. for 5 minutes and destained with one wash of 5% acetic acid. The membrane was then washed in TBS solution until the staining disappeared. […]

TGase II = TGase II assay of rat lung tissue after inhaled 13-cis RA (experiment B); type: in vivo
Description: Male rats (n=23) (Sprague-Dawley from Charles River) were divided into six experimental groups and were given varying amounts of 13-cis RA through an inhalant apparatus once daily for different times each day for 14 days. The experimental groups were as follows (Table 1): 1. Vehicle control: rats (3) inhaled vehicle for 240 minutes; 2. Low dose 13-cis RA: rats (4) inhaled a solution containing 13-cis RA at a concentration of 62.2 μg/liter (inhaled dose 115.0 μg/kg body weight) in 5 minutes; 3. Low-Middle dose 13-cis RA: rats (4) inhaled a solution containing 13-cis RA at a concentration of 62.2 μg/liter (inhaled dose 334.4 μg/kg body weight) in 15 minutes; 4.Middle dose 13-cis RA: rats (4) inhaled a solution containing 13-cis RA at a concentration of 62.2 μg/liter (inhaled dose 1012.3 μg/kg body weight) in 45 minutes; 5. Middle-High dose 13-cis RA: rats (4) inhaled a solution containing 13-cis RA at a concentration of 62.2 μg/liter (inhaled dose 2843.4 μg/kg body weight) in 120 minutes; 6. High dose 13-cis RA:rats (4) inhaled a solution containing 13-cis RA at a concentration of 62.2 μg/liter (inhaled dose 5935.6 μg/kg body weight) in 240 minutes.
Enzyme assay mixtures were prepared by adding 80 μl of SUBSTRATE mixture (322.8 μl H2O, 120 μl 0.5M NaBorate, 60 μl 0.01M EDTA, 60 μl 0.1M CaCl2, 6 μl 1M DTT, 240 μl dimethyl casein, 30 μl Triton X-100, 1.21 μl [^3H]-Putrescine, 120 μl Putrescine) to 20 μl sample, 20 μl scraping buffer for blank control, 20 μl (18 μl scraping buffer+2 μl TGase II) for positive control. Samples were mixed in 15 ml tubes, the tubes were shaken before putting them into a 28° C. water bath for 30 minutes. Reactions were slowed down in an ice bath. 80 μl of the incubation mixture was adsorbed onto paper disks. These were immediately dropped into cold 10% TCA (0.1% Putrescine) and washed with agitation for 7 minutes, followed by 2 additional washes with 5% TCA (0.05% putrescine) for 5-7 minutes, and once more with cold (−20° C.) 95% ethanol for 5 minutes. Paper disks were dried and placed into 5 ml Aquasol, and counted in a Liquid Scintillation Counter. Protein concentration determination was conducted by the Bradford method.
Cannon (Cannon et al., 1983).

albumin = albumin (Homo sapiens, UniProt P02768); conditions: systemic administration, reported; cited from earlier work
RAR β [1] = test: RAR induction in lungs of A/J mice exposed to isotretinoin aerosol, RAR β; type: in vivo, mouse; conditions: inhaled mid dose, urethane-treated A/J mice
Description: Antibodies: Polyclonal antibodies to RARα, β and γ (Santa Cruz Biotechnology Inc., San Francisco, Calif.) were used with a BM Chemiluminescence Western Blotting Kit (Mouse/Rabbit) (Boehringer Mannheim Corporation, Indianapolis).
Experimental Design: Five lungs each from the urethane-treated vehicle, low dose, and mid dose animals were snap frozen in liquid nitrogen and stored at −70° C. for determination of RARs α, β and γ by Western Blot Analysis. […] The lungs were homogenized and the RARs were determined by standard Western Blotting (21, 22).
Samples: Lung tissue was collected, frozen on dry ice and kept at −70° C. until used. A 500 mg portion was diced in small pieces and homogenized in 300 μl of cold PBS using a hand held homogenizer for 2-3 min. Samples were centrifuged at 500 rpm for 5 min or until the supernatant was clear. The pellet was suspended in 400 μl of cold Buffer A [2 μl 0.5 M EDTA, 10 μl mM EGTA, 50 μl 100 mM PMSF, 10 μl 1M DTT, 10 ml (10 mM HEPES pH 7.9+10 mM KCl)], and left at ice temperature for 15 min. A 25 μl volume of 10% solution of NP−40 was added and the samples were mixed in a vortex vigorously for 10 sec. Samples were centrifuged at 14,000 rpm for 1 min at 4° C. and the pellet was treated once more in this fashion. […]

RAR β [2] = test: Western blot of rat lung, inhaled 13-cis RA (experiment A), RAR β; type: in vivo; conditions: for upregulation of lung tissue RAR (second named, β): daily deposited dose 6.4 mg/kg/day
Description: as §1, §2, §3

[3] = daily deposited dose 1.9 mg/kg/day, day 28

albumin, sequence (P02768 25-609, species assumed): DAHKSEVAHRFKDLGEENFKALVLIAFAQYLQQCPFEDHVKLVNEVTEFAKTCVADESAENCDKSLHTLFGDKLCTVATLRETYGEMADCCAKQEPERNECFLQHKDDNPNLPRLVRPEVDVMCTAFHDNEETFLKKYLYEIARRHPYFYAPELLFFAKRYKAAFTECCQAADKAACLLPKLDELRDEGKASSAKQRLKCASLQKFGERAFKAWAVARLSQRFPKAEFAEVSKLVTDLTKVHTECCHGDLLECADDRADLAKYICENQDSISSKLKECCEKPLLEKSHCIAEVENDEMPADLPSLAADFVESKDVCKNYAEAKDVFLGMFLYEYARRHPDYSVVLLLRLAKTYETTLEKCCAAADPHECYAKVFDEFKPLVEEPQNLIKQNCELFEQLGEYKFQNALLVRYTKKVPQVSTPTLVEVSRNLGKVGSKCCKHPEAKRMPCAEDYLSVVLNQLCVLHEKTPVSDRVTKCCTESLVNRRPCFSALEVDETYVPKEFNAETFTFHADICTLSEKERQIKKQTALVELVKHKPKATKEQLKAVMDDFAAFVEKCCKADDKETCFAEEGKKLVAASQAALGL

## CC1=C(/C=C/C(C)=C/C=C/C(C)=C\C(=O)O)C(C)(C)CCC1 [13-cis RA, 13-cis-Retinoic Acid]
RAR α; [3]
  induction of lung RAR (first named, α): 4.7 fold
RAR α; day 1
  upregulation of lung tissue RAR (first named, α): 3.4 fold
RAR α; day 17
  upregulation of lung tissue RAR (first named, α): 4.2 fold
BaP-Treated Mice, Day 102, High Dose
  Body Weights (Mean ± SD) (N): 19.3 ± 1.6 (12)^a,e gms
BaP-Treated Mice, Day 102, Low Dose, vehicle control 22.5
  Body Weights (Mean ± SD) (N): 21.8 ± 1.2 (21) gms
BaP-Treated Mice, Day 102, Mid Dose
  Body Weights (Mean ± SD) (N): 20.1 ± 1.8 (20)^a,b gms
NNK-Treated Mice, Day 102, High Dose
  Body Weights (Mean ± SD) (N): 17.5 ± 1.2 (14)^a,d gms
NNK-Treated Mice, Day 102, Low Dose, vehicle control 22.7
  Body Weights (Mean ± SD) (N): 22.1 ± 1.5 (21) gms
NNK-Treated Mice, Day 102, Mid Dose
  Body Weights (Mean ± SD) (N): 20.3 ± 1.2 (20)^a,b gms
Urethane-Treated Mice, Day 60, High Dose
  Body Weights (Mean ± SD) (N): 18.9 ± 1.7 (12)^a,c gms
Urethane-Treated Mice, Day 60, Low Dose, vehicle control 20.8
  Body Weights (Mean ± SD) (N): 21.0 ± 1.2 (21) gms
Urethane-Treated Mice, Day 60, Mid Dose
  Body Weights (Mean ± SD) (N): 20.7 ± 1.5 (21) gms
High dose, daily exposures during first two weeks, listed as isotretinoin
  toxicity: excessive toxicity to the snout and forelimbs; also recorded: severe toxicity
High dose, daily exposures for the first two weeks
  mice that died: ~35%
Low dose
  side effects: without any evidence of side effects
Mid dose
  mice that died before the end of exposure: 3%
  time until which dose was tolerated (mice then began losing weight): ~12 wks
Mid dose, NNK- and BaP-treated mice
  weights below those of vehicle controls at the end of exposure: 11%
TGase II; High dose, 240 min daily, 14 days
  TGase II assay, rat lung: 8053 DPM/μg protein
TGase II; High dose: 1872 μg/kg total deposited, 240 min daily, 14 days
  TGase II assay, rat lung: 0.1025+/−0.004 picomoles/μg protein/30 min and 0.1025 ± 0.004 picomoles/μg protein/30 min
TGase II; Low dose, 5 min daily, 14 days, vehicle 3535
  TGase II assay, rat lung: 7503 DPM/μg protein
TGase II; Low dose: 39 μg/kg total deposited, 5 min daily, 14 days, vehicle 0.0450
  TGase II assay, rat lung: 0.0955+/−0.004 picomoles/μg protein/30 min and 0.0955 ± 0.004 picomoles/μg protein/30 min
TGase II; Low-Middle dose, 15 min daily, 14 days
  TGase II assay, rat lung: 9035 DPM/μg protein
TGase II; Low-Middle dose: 117 μg/kg total deposited, 15 min daily, 14 days
  TGase II assay, rat lung: 0.1150+/−0.006 picomoles/μg protein/30 min and 0.1150 ± 0.006 picomoles/μg protein/30 min
TGase II; Middle dose, 45 min daily, 14 days
  TGase II assay, rat lung: 10449 DPM/μg protein
TGase II; Middle dose: 351 μg/kg total deposited, 45 min daily, 14 days
  TGase II assay, rat lung: 0.1330+/−0.009 picomoles/μg protein/30 min and 0.1330 ± 0.009 picomoles/μg protein/30 min
TGase II; Middle-High dose, 120 min daily, 14 days
  TGase II assay, rat lung: 8014 DPM/μg protein
TGase II; Middle-High dose: 936 μg/kg total deposited, 120 min daily, 14 days
  TGase II assay, rat lung: 0.1020+/−0.005 picomoles/μg protein/30 min and 0.1020 ± 0.005 picomoles/μg protein/30 min
TGase II; maximum, inhaled dose 1012.3 μg/kg (45 minutes of inhalation), 14 days
  stimulation of lung TGase activity: 2.9 Fold
TGase II; with larger amounts of inhaled retinoid
  stimulation of lung TGase activity: 1.2 fold
albumin
  present as albumin bound: 99%
RAR β [1]
  upregulation of lung tissue RAR β over solvent (vehicle): 3.3 fold
RAR β [2]; [3]
  induction of lung RAR (second named, β): 8.0 fold
RAR β [2]; day 1
  upregulation of lung tissue RAR (second named, β): 7.2 fold
RAR β [2]; day 17
  upregulation of lung tissue RAR (second named, β): 10.0 fold

Reference: US20030216471A1, “Retinoid formulations for aerosolization and inhalation” (priority 2003, published 2003)
